Assay results published in BindingDB's records for PubMed 8531090 (Roche Bioscience, 1995).
Positions of bridges follow the written chain, without caps; N, C: chain ends. Non-standard residues stand in square brackets, D forms with d. Residues, ends and D or L forms follow the SMILES beside them. Chains are numbered I, II in the order given. Dap = NC[C@H](N)C(=O)O

Biological target: T1, Neuropeptide Y receptor type 1 (Rattus norvegicus, UniProt P21555)
T1 sequence (P21555 whole entry): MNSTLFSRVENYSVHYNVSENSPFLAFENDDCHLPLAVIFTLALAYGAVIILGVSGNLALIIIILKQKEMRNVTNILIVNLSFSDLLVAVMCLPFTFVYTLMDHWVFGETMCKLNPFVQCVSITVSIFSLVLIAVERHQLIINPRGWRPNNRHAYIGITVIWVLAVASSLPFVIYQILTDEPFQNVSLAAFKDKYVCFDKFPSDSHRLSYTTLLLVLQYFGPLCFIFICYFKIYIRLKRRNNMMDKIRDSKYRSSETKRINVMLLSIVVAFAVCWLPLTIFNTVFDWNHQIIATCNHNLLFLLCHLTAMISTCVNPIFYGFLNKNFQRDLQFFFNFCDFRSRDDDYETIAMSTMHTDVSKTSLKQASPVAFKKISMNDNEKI

- Ki: 12.6 nM
SMILES: CC[C@H](C)[C@H](N)C(=O)N[C@H]1CCC(=O)NC[C@@H](C(=O)N[C@@H](Cc2ccc(O)cc2)C(=O)N[C@@H](CCCN=C(N)N)C(=O)N[C@@H](CC(C)C)C(=O)N[C@@H](CCCN=C(N)N)C(=O)N[C@@H](Cc2ccc(O)cc2)C(N)=O)NC(=O)[C@@H]2CCCN2C(=O)[C@@H](NC(=O)[C@@H](N)[C@@H](C)CC)CCC(=O)NC[C@@H](C(=O)N[C@@H](Cc2ccc(O)cc2)C(=O)N[C@@H](CCCN=C(N)N)C(=O)N[C@@H](CC(C)C)C(=O)N[C@@H](CCCN=C(N)N)C(=O)N[C@@H](Cc2ccc(O)cc2)C(N)=O)NC(=O)[C@@H]2CCCN2C1=O [1229U91] (I: H-IEP[Dap]YRLRY-NH2 / II: H-IEP[Dap]YRLRY-NH2; amide I:2-II:4, I:4-II:2)
